Measurements taken from US4965280A, “Antifungal carbinols” (E. I. Du Pont de Nemours and Company, priority 1989, dated 1990).
In brackets after ≈: the same amount, converted by molar mass. Like-named read-outs stand apart in the source and are kept apart here.

Experiments:
[1] = system: Candida albicans ATCC 11651; test: In vivo systemic Candida infection in mice, primary assay; set-up: species or system Candida albicans; CF-1 female mice; conditions: Candida albicans, 150 mg/kg per day, read-out: % Survival
How it was run: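 CF-1 female mice (20 g, 10 per group) were infected IV with 0.2 ml of 1×10^7/ml C. albicans ATCC 11651, then given test compound subcutaneously at 50 or 150 mg/kg/day at 1 and 6 h post-infection and once daily for three more days. Survival was followed for 21 days against infected untreated mice; ≥70% protection at 14 days was scored active.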

Pyricularia oryzae = test: whole plant or invertebrate; format: in vivo; conditions: Pyricularia oryzae, 120 h, read-out: disease control rating, Ex. E, 100 PPM
Plasmorpara viticola = test: Example I grape downy mildew; format: in vivo; conditions: read-out: disease control rating, Ex. I
How it was run: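 Applied as a foliar spray to run-off on grape seedlings, the compounds were formulated at 100 or 20 ppm in water containing 250 ppm TREM 014, with acetone making up 6% of the volume.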

Pythium aphanadermatum = test: Example J cucumber damping off; format: in vivo; conditions: Pythium, 336 h; 5 kg/ha; read-out: disease control rating, Ex. J
How it was run: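 This cucumber damping-off test used soil and seeds infested with a sand–cereal preparation carrying mycelium of Pythium aphanadermatum. Incubation took place in a growth chamber held at 30° C. for 14 days. Afterwards, the extent of disease was scored as a disease control rating.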

SCIRPUS = test: Test C rice paddy; format: in vivo, Scirpus paludosus; conditions: Bolboschoenus maritimus, 504 h, 21 days, read-out: plant response; for pest or weed control at 64 g/ha: 0064 G/HA; for pest or weed control at 125 g/ha: 0125 G/HA; for pest or weed control at 250 g/ha: 0250 G/HA; for pest or weed control at 500 g/ha: 0500 G/HA
Text: (§1) Sixteen cm diameter Airlite plastic pots were partially filled with Tama slit loam soil and the soil saturated with water. Japonica and Indica rice seedlings a the 2.0 to 2.5 leaf stage were transplanted into 1/3 of the pots. Into another third of the pots were transplanted seedling or sprouted tubers of water plantain (Alisma trivale), Scripus (Scirpus paludosus), Cyperus (Cyperus esculentus), and arrowhead (Sagittaria spp.). The remaining pots were planted with barnyardgrass (Echinochloa crusgalli) seeds and sprouted tubes of water chestnut (Eleocharis spp.). These weeds all represent major rice weeds or genera of weeds important in rice. Three to four days after planting, the water level was raised to 3 cm (about 1200 ml/pot) and maintained a this level throughout the test. Chemical treatments were applied directly to the paddy water, within 24 hours of raising the water, after being formulated in a nonphytotoxic solvent. The pots were maintained in the greenhouse.

WATER PLAINTAIN = test: Test C rice paddy; format: in vivo, Alisma trivale; conditions: 504 h, 21 days, read-out: plant response; for pest or weed control at 64 g/ha: 0064 G/HA; for pest or weed control at 125 g/ha: 0125 G/HA; for pest or weed control at 250 g/ha: 0250 G/HA; for pest or weed control at 500 g/ha: 0500 G/HA
Text: as §1

G4646 CORN = test: Test D Corn and Sorghum Herbicide Test; format: in vivo, Zea mays
FALL PANICUM = test: Test D; format: in vivo, Panicum dichotomiflorum
LAMBSQUARTER = test: Test D; format: in vivo, Chenopodium album
JIMSONWEED = test: Test D; format: in vivo, Datura stramonium
[2] = system: Aspergillus fumigatus ATCC 28214; test: In vitro antifungal MIC, microtiter broth dilution; conditions: Aspergillus fumigatus, ATCC28214, 24 h, read-out: MIC values, A. fumigatus, 30°, 24 hours
MUSTARD SPP. = test: Test E; format: in vivo, Brassica spp.

## C=C(c1ccccc1)C(O)(Cn1cncn1)c1ccc(Cl)cc1Cl (stereo not shown) [Example 50, 2-(2,4-Dichlorophenyl)-3-phenyl-1-(1H-1,2,4-triazol-1-yl)-3-buten-2-ol]
[1]; ATCC11651, 168 h, day 7
  responders at 150 mg/kg: 100%
[1]; ATCC11651, 336 h, day 14
  responders at 150 mg/kg: 90%
[1]; ATCC11651, 504 h, day 21
  responders at 150 mg/kg: 50%
Pyricularia oryzae
  pest or weed control at 100 ppm: 86%
Plasmorpara viticola
  pest or weed control at 100 ppm: 46%
Pythium aphanadermatum
  pest or weed control at 5000 g/ha: 0%
SCIRPUS
  pest or weed control at 64 g/ha: 0%
  pest or weed control at 125 g/ha: 0%
  pest or weed control at 250 g/ha: 0%
  pest or weed control at 500 g/ha: 0%
  pest or weed control at 1000 g/ha: 0%
WATER PLAINTAIN
  pest or weed control at 64 g/ha: 0%
  pest or weed control at 125 g/ha: 0%
  pest or weed control at 250 g/ha: 0%
  pest or weed control at 500 g/ha: 0%
  pest or weed control at 1000 g/ha: 0%
G4646 CORN; POSTEMERGENCE 0250 GM/HA
  plant response: 0%
G4646 CORN; POSTEMERGENCE 0500 GM/HA
  plant response: 20%
G4646 CORN; PREEMERGENCE 0064 GM/HA
  plant response: 0%
G4646 CORN; PREEMERGENCE 0125 GM/HA
  plant response: 0%
G4646 CORN; PREEMERGENCE 0250 GM/HA
  plant response: 0%
G4646 CORN; PREEMERGENCE 0500 GM/HA
  plant response: 0%
FALL PANICUM; POSTEMERGENCE 0250 GM/HA
  plant response: 20%
FALL PANICUM; POSTEMERGENCE 0500 GM/HA
  plant response: 35%
FALL PANICUM; PREEMERGENCE 0064 GM/HA
  plant response: 20%
FALL PANICUM; PREEMERGENCE 0125 GM/HA
  plant response: 35%
FALL PANICUM; PREEMERGENCE 0250 GM/HA
  plant response: 60%
FALL PANICUM; PREEMERGENCE 0500 GM/HA
  plant response: 95%
LAMBSQUARTER; POSTEMERGENCE 0250 GM/HA
  plant response: 65%
LAMBSQUARTER; POSTEMERGENCE 0500 GM/HA
  plant response: 80%
LAMBSQUARTER; PREEMERGENCE 0064 GM/HA
  plant response: 0%
LAMBSQUARTER; PREEMERGENCE 0125 GM/HA
  plant response: 35%
LAMBSQUARTER; PREEMERGENCE 0250 GM/HA
  plant response: 75%
LAMBSQUARTER; PREEMERGENCE 0500 GM/HA
  plant response: 90%
JIMSONWEED; POSTEMERGENCE 0250 GM/HA
  plant response: 20%
JIMSONWEED; POSTEMERGENCE 0500 GM/HA
  plant response: 45%
JIMSONWEED; PREEMERGENCE 0064 GM/HA
  plant response: 0%
JIMSONWEED; PREEMERGENCE 0125 GM/HA
  plant response: 25%
JIMSONWEED; PREEMERGENCE 0250 GM/HA
  plant response: 50%
JIMSONWEED; PREEMERGENCE 0500 GM/HA
  plant response: 70%
[2]
  MIC: 0.8 µg/mL (≈ 2.22 µM)

## C=C(c1ccc(Cl)cc1)C(O)(Cn1cncn1)c1ccccc1F (stereo not shown) [Example 669]
[1]; ATCC11651, 168 h, day 7
  responders at 150 mg/kg: 100%
[1]; ATCC11651, 336 h, day 14
  responders at 150 mg/kg: 100%
[1]; ATCC11651, 504 h, day 21
  responders at 150 mg/kg: 100%
Pyricularia oryzae
  pest or weed control at 100 ppm: 96%
Plasmorpara viticola
  pest or weed control at 100 ppm: 0%
Pythium aphanadermatum
  pest or weed control at 5000 g/ha: 0%
SCIRPUS
  pest or weed control at 64 g/ha: 0%
  pest or weed control at 125 g/ha: 0%
  pest or weed control at 250 g/ha: 0%
  pest or weed control at 500 g/ha: 0%
  pest or weed control at 1000 g/ha: 30%
WATER PLAINTAIN
  pest or weed control at 64 g/ha: 0%
  pest or weed control at 125 g/ha: 0%
  pest or weed control at 250 g/ha: 0%
  pest or weed control at 500 g/ha: 0%
  pest or weed control at 1000 g/ha: 0%
[2]
  MIC: 0.8 µg/mL (≈ 2.33 µM)

## C=C(c1ccccc1)C(O)(Cn1cncn1)c1ccc(F)cc1F (stereo not shown) [Example 52, 2-(2,4-Difluorophenyl)-3-phenyl-1-(1H-1,2,4-triazol-1-yl)-3-buten-2-ol]
[1]; ATCC11651, 168 h, day 7
  responders at 150 mg/kg: 100%
[1]; ATCC11651, 336 h, day 14
  responders at 150 mg/kg: 100%
[1]; ATCC11651, 504 h, day 21
  responders at 150 mg/kg: 90%
Pyricularia oryzae
  pest or weed control at 100 ppm: 93%
Plasmorpara viticola
  pest or weed control at 100 ppm: 0%
Pythium aphanadermatum
  pest or weed control at 5000 g/ha: 0%
MUSTARD SPP.; POSTEMERGENCE 0064 GM/HA
  plant response: 0%
MUSTARD SPP.; POSTEMERGENCE 0125 GM/HA
  plant response: 0%
MUSTARD SPP.; POSTEMERGENCE 0250 GM/HA
  plant response: 20%
MUSTARD SPP.; POSTEMERGENCE 0500 GM/HA
  plant response: 50%
MUSTARD SPP.; PREEMERGENCE 0250 GM/HA
  plant response: 50%
[2]
  MIC: 0.4 µg/mL (≈ 1.22 µM)

## C=C(c1ccc(F)cc1)C(O)(Cn1ncnc1I)c1ccc(F)cc1F (stereo not shown) [Example 1381]
Pyricularia oryzae
  pest or weed control at 100 ppm: 51%
Plasmorpara viticola
  pest or weed control at 100 ppm: 78%
Pythium aphanadermatum
  pest or weed control at 5000 g/ha: 0%
SCIRPUS
  pest or weed control at 64 g/ha: 0%
  pest or weed control at 125 g/ha: 0%
  pest or weed control at 250 g/ha: 0%
  pest or weed control at 500 g/ha: 0%
  pest or weed control at 1000 g/ha: 30%
WATER PLAINTAIN
  pest or weed control at 64 g/ha: 0%
  pest or weed control at 125 g/ha: 0%
  pest or weed control at 250 g/ha: 0%
  pest or weed control at 500 g/ha: 0%
  pest or weed control at 1000 g/ha: 0%

## C=C(c1ccc(F)cc1)C(O)(Cn1cncn1)c1ccc(F)cc1F (stereo not shown) [Example 4, 2-(2,4-Difluorophenyl)-3-(4-fluorophenyl)-1-(1H-1,2,4-triazol-1-yl)-3-buten-2-ol]
[1]; ATCC11651, 168 h, day 7
  responders at 150 mg/kg: 100%
[1]; ATCC11651, 336 h, day 14
  responders at 150 mg/kg: 50%
Pyricularia oryzae
  pest or weed control at 100 ppm: 96%
Plasmorpara viticola
  pest or weed control at 100 ppm: 81%
Pythium aphanadermatum
  pest or weed control at 5000 g/ha: 0%
MUSTARD SPP.; POSTEMERGENCE 0064 GM/HA
  plant response: 20%
MUSTARD SPP.; POSTEMERGENCE 0125 GM/HA
  plant response: 40%
MUSTARD SPP.; POSTEMERGENCE 0250 GM/HA
  plant response: 40%
MUSTARD SPP.; POSTEMERGENCE 0500 GM/HA
  plant response: 80%
MUSTARD SPP.; PREEMERGENCE 0500 GM/HA
  plant response: 50%
[2]
  MIC: 0.8 µg/mL (≈ 2.32 µM)
